Patent publication US11440939B2, “Anticancer peptides” (IDP DISCOVERY PHARMA, S.L., priority 2017, dated 2022)
Numbered stars: 1 amine (or outer) side, 2 acyl side, 3 side chain; on linkers, the order of the positions; unused ones are H or OH. Bridge positions count the residues as written; N and C are the ends. Square brackets hold non-standard residues; d marks the D form. Peptide text beside a SMILES is read from it. ξ: configuration not given here. ξαMeNle(6-ylidene) = CC(CCCC=[*:3])(N[*:1])C(=O)[*:2]; X1 = CC(CCCCCCC=[*:3])(N[*:1])C(=O)[*:2]

Key:
NCI-H187 = type: cell-based; details: 72 h
Method: NCI-H187, epithelial (small cell lung cancer, SCLC), ATCC-CRL-5804;
(§1) Cell line MCF-7 was cultured in incubator under CO2 (6%) at 37° C. in DMEM high glucose (Dulbecco's Modified Eagle Solution, Gibco-BRL 31966-21) medium with 10% fetal bovine serum inactivated (FBS) (Gibco-BRL 10106-169). Cell lines HL-60, NCI-H524, NCI-H526, NCI-H69, NCI-H82, NCI-H187 and H5B were cultured in an incubator at 37° C. in RPMI-1640 (Sigma R8758) medium with 10% of fetal bovine serum inactivated (FBS) and 2 mM glutamine (Sigma G7513). Cell line NCI-H510A was cultured in incubator in F12K medium with 10% of fetal bovine serum inactivated (FBS). Cell line GBM-18 and GBM-27 were cultured in incubator under CO2 (6%) at 37° C. in complete medium (Neurobasal+B27+Glutamax+Growth factors).
(§2) During the amplification step and the assays, adherent cells were rinsed with DPBS (Dulbecco's Phosphate Buffered Saline, Sigma D1283) three times and afterward treated for 5 minutes with trypsin ([…]) (Gibco-BRL, 15400054) in solution of DPBS at 37° C., and, once detached, transferred in the culturing medium. No-adherent cells were centrifuged and transferred in the culturing medium. Cells were counted in a Neubauer chamber after labelling with Tripan-Blue.
(§3) MCF-7, NCI-H187, NCI-H69, NCI-H526 and H5B cells were seeded at a density of 5000 cells/well; NCI-H524 and NCI-H82 were seeded at a density of 2500 cells/well; HL-60 and NCI-H510A at 10000 cells/well in 100 μl of medium in 96 well plates. After 24 h, the compounds to be tested were added to calculate the dose/response curve at the starting concentration of 100 μM with serial dilutions (1:1). Controls were the untreated cells. Each experiment was performed in triplicate.
(§4) Cells were incubated during 72 h in incubator under CO2 atmosphere at 37° C. Cell viability was measured by means of MTT (3-(4,5-dimethylthiazol-2-yl)-2,5-diphenyltetrazolium bromide) assay, Alamar Blue® (Biosource DAL1100) and Hexosaminidase activity test, consecutively, following manufacturer instructions.
(§5) MTT: 1. Stock solution of MTT (475989 Calbiochem) was 5 mg/ml in PBS 1×. As negative control (experiment noise) 3 wells were treated with 20 μl/well of a solution of SDS 10% in H2O. The same control was used for Alamar Blue/Hexosaminidase. 10 μl/well of MTT solution were added and the plate was incubated for 3-4 hr. The medium was discarded and 100 μl of extracting buffer (PBS 1×, 15% SDS, 50% […] N,N-Dimethylformamide, pH 4,7) were added to each well. Plates were incubated for 16 h at room temperature under orbital shaking. Absorbance at 570 nm was finally measured.
(§6) Alamar Blue: 10 μl Alamar Blue solution was added to each well and the plates were incubated for […] in the incubator. Fluorescence ratio at 535/590 (excitation/emission) was measured in Cytofluor (Millipore) fluorimeter. Blank control was determined by lysis of untreated cells with con 2% of Triton X100, right before adding Alamar Blue solution.
(§7) Hexosaminidase activity test: after Alamar Blue lecture, medium was discarded and plates were rinsed once with PBS. 60 μl hexosaminidase substrate (p-nitrophenol-N-acetyl-beta-D-glucosamide 7.5 mM [Sigma N-9376], sodium citrate 0.1 M, pH 5.0, 0.25% Triton X-100) was added to each well and the plates were incubated at 37° C. for 2-5 h, according to the cell type (hexosaminidase activity changes according to the cell type). […] Blank control was the same as described before.
(§8) Data analysis was performed calculating the percentage of cell viability normalized vs. the values of negative control, which was considered equal to 100%. The dose/response curve was fitted through the sigmoidal equation dose-response (variable slope) and the EC50 values were calculated as follow: Y=Bottom+(Top−Bottom)/(1+10^{[(Log EC50−X)*HillSlope]},

NCI-H524 = type: cell-based; details: 72 h
Method: NCI-H524, lung (small cell lung cancer, SCLC), ATCC-CRL-5831;
as §1
as §2, with “Tripan-Blue. […]” for “Tripan-Blue.”
as §4
MTT: 1. […] Absorbance at 570 nm was finally measured.
as §6, with “solution. […]” for “solution.”

NCI-H69 = type: cell-based; details: 72 h
Method: NCI-69, (small cell lung cancer, SCLC), ATCC-HTB-119;
as §1, with “Cell line GBM-18 and GBM-27 were cultured in incubator under CO2 (6%) at 37° C. in complete medium (Neurobasal+B27+Glutamax+Growth factors).” left out
as §2, with “No-adherent cells were centrifuged and transferred in the culturing medium.” left out, “Tripan-Blue. […]” for “Tripan-Blue.”
as §4
(§9) MTT: 1. […] Absorbance at 570 nm was finally measured. […]

NCI-H510A = type: cell-based; details: 72 h
Method: NCI-510A, epithelial (small cell lung cancer, SCLC), ATCC-HBT-124; and Hepatocytes (normal liver), from a donor was provided by Foundation DTI-Donation & Transplantation Institute from surgical wastes and from organs not suitable for transplantation
as §1, §2, §3, §4, §5, §6, §7, §8

MCF-7 = type: cell-based
Method: MCF-7, epithelial (breast cancer), ECACC: 86012803;
as §1, with “Cell line GBM-18 and GBM-27 were cultured in incubator under CO2 (6%) at 37° C. in complete medium (Neurobasal+B27+Glutamax+Growth factors).” left out
as §2, with “No-adherent cells were centrifuged and transferred in the culturing medium.” left out, “Tripan-Blue. […]” for “Tripan-Blue.”
as §4, §9

GBM-27 = type: cell-based
Method: GMB-27, epithelial (glioblastoma, GMB), from surgical specimens from patients;
as §1, with “Cell line GBM-18 and GBM-27 were cultured in incubator under CO2 (6%) at 37° C. in complete medium (Neurobasal+B27+Glutamax+Growth factors).” left out
as §2, with “No-adherent cells were centrifuged and transferred in the culturing medium.” left out
as §4, with “instructions. […]” for “instructions.”

[1] = Stability test in human plasma, LC MS/MS; type: in vitro ADME; details: 37° C.
Method: For the preparation of stock solutions, H14 was dissolved in water/acetonitrile (95/5, v/v) containing 0.1% formic acid to a concentration of 1.00 mg/mL. Further serial dilutions were carried out in plasma. The concentrations were calculated under consideration of purity.
For preparation of plasma samples, the human blank plasma were fortified with the stock solution using a ratio of 1:100 to obtain a sample with 10.0 μg/mL which was subsequently serial-diluted in human blank plasma.
A volume of 300 μL of human plasma samples for the two peptide concentrations (100 ng/mL and 1000 ng/mL) were transferred to an empty 96 deep well plate. The plate was incubated at 37° C. in a thermomixer at approximately 700 rpm. At selected incubation time points of 0 h, 1 h, 2 h, 4 h, 6 h and 24 h, aliquots of plasma were precipitated with acetonitrile containing internal standard. To an aliquot of 20 μL human plasma samples, 40 μL of acetonitrile containing 1% formic acid and the internal standard was added. After vortex mixing for a few seconds, the samples were centrifuged for about 10 minutes at approximately 50000 g. The temperature of the centrifuge was set to 8° C. An aliquot of 30 μL of the supernatant was transferred to an autosampler vial for analysis using LC MS/MS.
The quantification of H14 was performed by column separation with reverse phase chromatography followed by detection with triple stage quadrupole MS/MS in the selected reaction monitoring mode.

`CC(C)C[C@H](NC(=O)[C@H](CCCCN)NC(=O)[C@@H](NC(=O)[C@@H](N)CCCNC(=N)N)C(C)C)C(=O)N[C@H](C(=O)N[C@@H](CC(N)=O)C(=O)N[C@@H](CC(C)C)C(=O)NC1(C)CCCCCCC=CCCCC(C)(C(=O)N[C@H](C(=O)N2CCC[C@H]2C(N)=O)C(C)C)NC(=O)[C@H](CCC(=O)O)NC(=O)[C@H](CCCNC(=N)N)NC(=O)[C@H](CC(C)C)NC(=O)[C@H]([C@@H](C)O)NC(=O)[C@H](C)NC(=O)[C@H](Cc2ccccc2)NC1=O)C(C)C` (stereo partly drawn) [H14] (H-RVKLVNL[X1]FATLRE[ξαMeNle(6-ylidene)]VP-NH2; staple 8-15; N-terminus and C-terminus assumed) showed an EC50 (NCI-H187) of ~10 µM, an EC50 (NCI-H524) of ~12.5 µM and an EC50 (NCI-H69) of ~7 µM. It also gave an EC50 (NCI-H510A) of ~12 µM, an EC50 (MCF-7) of ~9 µM and an EC50 (GBM-27) of ~5 µM. For the same compound, the “H14 amount (% peak area)” value ([1]; 100 ng/mL, 0 h) was 100 % peak area, the remaining at 1 h, 100 ng/mL ([1]; 100 ng/mL, 1 h, read-out: H14 amount (% peak area)) was 96.1% and the “H14 amount (% peak area)” value ([1]; 100 ng/mL, 2 h) was 96.1 % peak area. It also gave a remaining at 4 h, 100 ng/mL ([1]; 100 ng/mL, 4 h, read-out: H14 amount (% peak area)) of 102%, a remaining at 6 h, 100 ng/mL ([1]; 100 ng/mL, 6 h, read-out: H14 amount (% peak area)) of 97.2% and a remaining at 24 h, 100 ng/mL ([1]; 100 ng/mL, 24 h, read-out: H14 amount (% peak area)) of 108%. The “H14 amount (% peak area)” value ([1]; 1000 ng/mL, 0 h) was 100 % peak area, the remaining at 1 h, 1000 ng/mL ([1]; 1000 ng/mL, 1 h, read-out: H14 amount (% peak area)) was 101% and the remaining at 2 h, 1000 ng/mL ([1]; 1000 ng/mL, 2 h, read-out: H14 amount (% peak area)) was 94.9%. For the same compound, the remaining at 4 h, 1000 ng/mL ([1]; 1000 ng/mL, 4 h, read-out: H14 amount (% peak area)) was 95.4%, the remaining at 6 h, 1000 ng/mL ([1]; 1000 ng/mL, 6 h, read-out: H14 amount (% peak area)) was 99.9% and the remaining at 24 h, 1000 ng/mL ([1]; 1000 ng/mL, 24 h, read-out: H14 amount (% peak area)) was 101%.
